Test results as given in patent US10646488B2 (Araxes Pharma LLC, priority 2016, dated 2020).

Target: T1, KRAS G12C 1-169, his-tagged protein, GDP-loaded (Homo sapiens, UniProt P01116, G12C)
T1 construct: KRAS G12C 1-169, his-tagged protein, GDP-loaded
Assay: Covalent binding (% modification) to KRAS G12C by mass spectrometry
Method: Test compounds were prepared as 10 mM stock solutions in DMSO (Fisher cat # BP-231-100). KRAS G12C 1-169, his-tagged protein, GDP-loaded was diluted to 2 μm in buffer (20 mM Hepes, 150 mM NaCl, 1 mM MgCl2). Compounds were tested for activity as follows:
Compounds were diluted to 50× final test concentration in DMSO in 96-well storage plates. Compound stock solutions were vortexed before use and observed carefully for any sign of precipitation. Dilutions were as follow: • For 100 μM final compound concentration, compounds were diluted to 5000 μM (5 μl 10 mM compound stock+5 μl DMSO and mixed well by pipetting. • For 30 μM final compound concentration, compounds were diluted to 1500 μM (3 μl 10 mM compound stock+17 μl DMSO) and mixed well by pipetting. • For 10 μM final compound concentration, compounds were diluted to 500 μM (2 μl 10 mM compound stock+38 μl DMSO) and mixed well by pipetting. 49 μl of the stock protein solution was added to each well of a 96-well PCR plate (Fisher cat #1423027). 1 μl of the diluted 50× compounds were added to appropriate wells in the PCR plate using 12-channel pipettor. Reactions were mixed carefully and thoroughly by pipetting up/down with a 200·1 multi-channel pipettor. […] 5 μl of 2% formic acid (Fisher cat # A117) in DI H2O was then added to each well followed by mixing with a pipette. The plate was then resealed with aluminum seal and stored on dry ice until analyzed as described below.
The above described assays were analyzed by mass spectrometry according to one of the following two procedures:
The MS instrument is set to positive polarity, 2 GHz resolution, and low mass (1700) mode and allowed to equilibrate for 30 minutes. The instrument is then calibrated, switched to acquisition mode and the appropriate method loaded.
After another 30 minute equilibration time, a blank batch (i.e., buffer) is run to ensure equipment is operating properly. The samples are thawed at 37° C. for 10 minutes, briefly centrifuged, and transfer to the bench top. Wells A1 and H12 are spiked with 1 uL 500 uM internal standard peptide, and the plates centrifuged at 2000×g for 5 minutes. The method is then run and masses of each individual well recorded.
The masses (for which integration data is desired) for each well are pasted into the platemap and exported from the analysis. Masses for the internal standards are exported as well. The data at 50 ppm is extracted for the +19 charge state, and identity of well A1 is assigned using the internal standard spike and integrated. Peak data is exported as a TOF list and the above steps are repeated individually, for the +20, 21, 22, 23, 24, and 25 charge states.
The masses and peak intensities of KRAS G12C protein species were measured using a Dionex RSLCnano system (Thermo Scientific) connected to a Q Exactive Plus mass spectrometer (Thermo Scientific).
[…] of sample was each loaded onto a Aeris™ 3.6 μm WIDEPORE C4 200 Å, LC Column 50×2.1 mm column maintained at 40° C. at a flow rate of 600 μl min^−1 with […] (0.1% formic acid in acetonitrile). The liquid chromatography conditions were 20% solvent B for 1 min, 20% to 60% solvent B for 1.5 min, 60% to 90% solvent for 0.5 min, 90% solvent B for 0.2 min, 90% to 20% solvent B for 0.2 min, and then equilibrated for 1.6 min before the following sample injection. The flow rate was maintained at 600 μl min^−1 throughout the sample analysis.
The mass spectrometer was operated in profile mode at a resolution of 17500, 5 microscans, using 50 msec max injection time and an AGC target of 1e6, and a full mass range from 800-1850 m/z was recorded. The HCD trapping gas was optimized for maximum sensitivity for intact proteins. The ionization method was electrospray ionization, which used a spray voltage of 4 kV, sheath gas flow set to 50 au, auxiliary gas flow set to 10 au and sweep gas flow set to 1 au. […]

[1] = covalent binding to KRAS G12C after a three minute incubation period
[2] = covalent binding to KRAS G12C after a ten minute incubation period

Compound | Binding % [1] | Binding % [2]
C=CC(=O)N1CCN(c2nc(N3CC(C)(N(C)C)C3)nc3c(F)c(-c4c(C)ccc5[nH]ncc45)c(Cl)cc23)[C@@H](C)C1 [Compound 150, 1-((3S)-4-(6-chloro-2-(3-(dimethylamino)-3-methylazetidin-1-yl)-8-fluoro-7-(5-methyl-1H-indazol-4-yl)quinazolin-4-yl)-3-methyl-piperazin-1-yl) prop-2-en-1-one] | +++ (+++ indicates binding activity greater than 90%) | 
C=CC(=O)N1C[C@H](C)N(c2nc(OC3CCN(C4CC4)CC3)nc3c(F)c(-c4c(C)ccc5cn[nH]c45)c(Cl)cc23)C[C@H]1C [Compound 137, 1-((2R,5S)-4-(6-chloro-2-((1-cyclopropyl-piperidin-4-yl)oxy)-8-fluoro-7-(6-methyl-1H-indazol-7-yl)quinazolin-4-yl)-2,5-dimethyl-piperazin-1-yl) prop-2-en-1-one] | +++ (+++ indicates binding activity greater than 90%) | 
C=CC(=O)N1CCN(c2nc(N3CC(N(C)C)C3)nc3c(F)c(-c4c(C)ccc5cn[nH]c45)c(Cl)cc23)C[C@H]1C (atropisomer, axis not shown) [Compound 70, 1-((R)-4-((R)-6-chloro-2-(3-(dimethylamino)azetidin-1-yl)-8-fluoro-7-(6-methyl-1H-indazol-7-yl)quinazolin-4-yl)-2-methyl-piperazin-1-yl) prop-2-en-1-one] |  | +++ (+++ indicates binding activity greater than 90%)
C=CC(=O)N1C[C@H](C)N(c2nc(N3CC(N(CC)C4CC4)C3)nc3c(F)c(-c4c(C)ccc5cn[nH]c45)c(Cl)cc23)C[C@H]1C [Compound 116, 1-((2R,5S)-4-(6-chloro-2-(3-(cyclopropyl (ethyl)amino)azetidin-1-yl)-8-fluoro-7-(6-methyl-1H-indazol-7-yl)quinazolin-4-yl)-2,5-dimethyl-piperazin-1-yl) prop-2-en-1-one] | ++ (++ indicates binding activity from 50 to 90%) | 
C=CC(=O)N1C[C@H](C)N(c2nc(OCCCN(C)C)nc3c(F)c(-c4c(O)cccc4F)c(Cl)cc23)C[C@H]1C [Compound 172, 1-((2R,5S)-4-(6-chloro-2-(3-(dimethylamino)propoxy)-8-fluoro-7-(2-fluoro-6-hydroxyphenyl)quinazolin-4-yl)-2,5-dimethyl-piperazin-1-yl) prop-2-en-1-one] | +++ (+++ indicates binding activity greater than 90%) | 
C=CC(=O)N1C[C@@H](C)N(c2nc(N3CC(N(C)C)C3)nc3c(F)c(-c4c(C)ccc5cn[nH]c45)c(Cl)cc23)[C@@H](C)C1 [Compound 44, 1-((3S,5R)-4-(6-chloro-2-(3-(dimethylamino)azetidin-1-yl)-8-fluoro-7-(6-methyl-1H-indazol-7-yl)quinazolin-4-yl)-3,5-dimethyl-piperazin-1-yl) prop-2-en-1-one] |  | ++ (++ indicates binding activity from 50 to 90%)
C=CC(=O)N1C[C@H](C)N(c2nc(N3CC(N(C)C4CCC4)C3)nc3c(F)c(-c4c(O)cccc4F)c(Cl)cc23)C[C@H]1C (atropisomer, axis not shown) [Compound 139, 1-((2R,5S)-4-(6-chloro-2-(3-(cyclobutyl (methyl)amino)azetidin-1-yl)-8-fluoro-7-((R)-2-fluoro-6-hydroxyphenyl)quinazolin-4-yl)-2,5-dimethyl-piperazin-1-yl) prop-2-en-1-one] | + (+ indicates binding activity greater than 0% and up to 50%) | 
C=CC(=O)N1C[C@H](C)N(c2nc(OCCCN(C)C)nc3c(F)c(-c4c(C)ccc5[nH]ncc45)c(C(F)(F)F)cc23)C[C@H]1C [Compound 215, 1-((2R,5S)-4-(2-(3-(dimethylamino)propoxy)-8-fluoro-7-(5-methyl-1H-indazol-4-yl)-6-(trifluoromethyl)quinazolin-4-yl)-2,5-dimethyl-piperazin-1-yl) prop-2-en-1-one] | +++ (+++ indicates binding activity greater than 90%) | 
C=CC(=O)N1CCN(c2nc(N3CC(N(C)C)C3)nc3c(F)c(-c4c(O)cccc4F)c(Cl)cc23)C[C@@H]1C [Compound 88, 1-((2S)-4-(6-chloro-2-(3-(dimethylamino)azetidin-1-yl)-8-fluoro-7-(2-fluoro-6-hydroxyphenyl)quinazolin-4-yl)-2-methyl-piperazin-1-yl) prop-2-en-1-one] | + (+ indicates binding activity greater than 0% and up to 50%) | 
C=CC(=O)N1C[C@H](C)N(c2nc(OCCN(CC)CC)nc3c(F)c(-c4c(O)cccc4F)c(Cl)cc23)C[C@H]1C (atropisomer, axis not shown) [Compound 74, 1-((2R,5S)-4-((R)-6-chloro-2-(2-(diethylamino)ethoxy)-8-fluoro-7-(2-fluoro-6-hydroxyphenyl)quinazolin-4-yl)-2,5-dimethyl-piperazin-1-yl) prop-2-en-1-one] |  | + (+ indicates binding activity up to 50%)
C=CC(=O)N1C[C@H](C)N(c2nc(Oc3ccnn3C)nc3c(F)c(-c4cc(O)cc5ccccc45)c(Cl)cc23)C[C@H]1C [Compound 205, 1-((2R,5S)-4-(6-chloro-8-fluoro-7-(3-hydroxy-naphthalen-1-yl)-2-((1-methyl-1H-pyrazol-5-yl)oxy)quinazolin-4-yl)-2,5-dimethyl-piperazin-1-yl) prop-2-en-1-one] | ++ (++ indicates binding activity from 50 to 90%) | 
C=CC(=O)N1CCN(c2nc(N)nc3c(F)c(-c4c(O)cccc4F)c(Cl)cc23)C[C@@H]1C [Compound 3, 1-((2S)-4-(2-amino-6-chloro-8-fluoro-7-(2-fluoro-6-hydroxyphenyl)quinazolin-4-yl)-2-methylpiperazin-1-yl)prop-2-en-1-one] |  | ++ (++ indicates binding activity from 50 to 90%)
C=CC(=O)N1C[C@H](C)N(c2nc(N3CC(N(C)C)C3)nc3c(F)c(-c4cc(O)cc5ccccc45)c(Cl)cc23)C[C@H]1C [Compound 147, 1-((2R,5S)-4-(6-chloro-2-(3-(dimethylamino)azetidin-1-yl)-8-fluoro-7-(3-hydroxynaphthalen-1-yl)quinazolin-4-yl)-2,5-dimethyl-piperazin-1-yl) prop-2-en-1-one] | +++ (+++ indicates binding activity greater than 90%) | 
C#CCN(C)C1CN(c2nc(N3C[C@@H](C)N(C(=O)C=C)C[C@@H]3C)c3cc(Cl)c(-c4c(O)cccc4F)c(F)c3n2)C1 [Compound 93, 1-((2R,5S)-4-(6-chloro-8-fluoro-7-(2-fluoro-6-hydroxyphenyl)-2-(3-(methyl (prop-2-yn-1-yl)amino)azetidin-1-yl)quinazolin-4-yl)-2,5-dimethyl-piperazin-1-yl) prop-2-en-1-one] | ++ (++ indicates binding activity from 50 to 90%) | 
C=CC(=O)N1C[C@H](C)N(c2nc(N3CC4(CCN(C5CC5)C4)C3)nc3c(F)c(-c4c(O)cccc4F)c(Cl)cc23)C[C@H]1C [Compound 149, 1-((2R,5S)-4-(6-chloro-2-(6-cyclopropyl-2,6-diazaspiro[3.4]octan-2-yl)-8-fluoro-7-(2-fluoro-6-hydroxyphenyl)quinazolin-4-yl)-2,5-dimethyl-piperazin-1-yl) prop-2-en-1-one] | ++ (++ indicates binding activity from 50 to 90%) | 
C=CC(=O)N1C[C@H](C)N(c2nc(N3CC4(CCCN4C)C3)nc3c(F)c(-c4c(O)cccc4F)c(Cl)cc23)C[C@H]1C [Compound 177, 1-((2R,5S)-4-(6-chloro-8-fluoro-7-(2-fluoro-6-hydroxyphenyl)-2-(5-methyl-2,5-diazaspiro[3.4]octan-2-yl)quinazolin-4-yl)-2,5-dimethyl-piperazin-1-yl) prop-2-en-1-one] | ++ (++ indicates binding activity from 50 to 90%) | 
